Calls of active or inactive are those of the source. No cut-off for these calls is given here.

Test [1] can be described thus: Effect on Ca2+ mobilization in GPR17 deficient human 1321N1 cells at 0.3 uM after 20 mins by oregon green 488 BAPTA-1/AM dye-based fluorescence assay. It counts as functional.
The target of test [2] is T1, Uracil nucleotide/cysteinyl leukotriene receptor (Homo sapiens, UniProt Q13304). Briefly: Agonist activity at recombinant human GPR17 short isoform transfected in human 1321N1 cells assessed as mobilization of intracellular Ca2+ at 10 uM after 20 mins by oregon green 488 BAPTA-1/AM dye-based fluorescence assay relative to control. It is filed as functional, cell-based.
T1 sequence (Q13304 whole entry, canonical isoform): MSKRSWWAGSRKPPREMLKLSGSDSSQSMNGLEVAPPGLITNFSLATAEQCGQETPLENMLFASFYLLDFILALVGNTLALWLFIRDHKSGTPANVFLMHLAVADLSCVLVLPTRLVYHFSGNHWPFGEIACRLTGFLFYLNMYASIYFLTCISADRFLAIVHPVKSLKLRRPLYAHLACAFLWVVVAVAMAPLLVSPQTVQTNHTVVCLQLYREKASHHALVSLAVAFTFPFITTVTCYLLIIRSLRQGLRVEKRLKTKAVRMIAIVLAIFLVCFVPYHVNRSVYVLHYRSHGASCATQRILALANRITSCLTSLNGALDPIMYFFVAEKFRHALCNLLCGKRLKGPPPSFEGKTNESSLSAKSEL

Test [3] has as its system CHO-K1. Briefly: Effect on Ca2+ mobilization in GPR17 deficient CHOK1 cells at 0.3 uM after 20 mins by oregon green 488 BAPTA-1/AM dye-based fluorescence assay. It is filed as functional, Cricetulus griseus. For orientation: A change in cytosolic calcium serves as a functional read-out for many receptors and channels.
Test [4] has as its target T1, Uracil nucleotide/cysteinyl leukotriene receptor. As to the kind of experiment: Agonist activity at recombinant human GPR17 short isoform transfected in CHO cells assessed as mobilization of intracellular Ca2+ at 0.3 uM after 20 mins by oregon green 488 BAPTA-1/AM dye-based fluorescence assay relative to control. It is filed as functional, cell-based.
Test [5] shares this target. As to the kind of experiment: Agonist activity at recombinant human GPR17 short isoform transfected in CHO cells assessed as mobilization of intracellular Ca2+ at 1 uM after 20 mins by oregon green 488 BAPTA-1/AM dye-based fluorescence assay relative to control. It counts as functional, cell-based.
The target is the same in test [6]. As to the kind of experiment: Agonist activity at recombinant human GPR17 short isoform transfected in human 1321N1 cells assessed as mobilization of intracellular Ca2+ at 1 uM after 20 mins by oregon green 488 BAPTA-1/AM dye-based fluorescence assay relative to control. It is filed as functional, cell-based.
Test [7] has the same target. As to the kind of experiment: Agonist activity at recombinant human GPR17 short isoform transfected in CHO cells assessed as mobilization of intracellular Ca2+ after 20 mins by oregon green 488 BAPTA-1/AM dye-based fluorescence assay. It is filed as functional, cell-based.
Test [8] deals with CHO-K1. As to the kind of experiment: Effect on Ca2+ mobilization in GPR17 deficient CHOK1 cells at 3 uM after 20 mins by oregon green 488 BAPTA-1/AM dye-based fluorescence assay. It is filed as functional, Cricetulus griseus.
The target in test [9] is T1, Uracil nucleotide/cysteinyl leukotriene receptor. Briefly: Agonist activity at recombinant human GPR17 short isoform transfected in CHO cells assessed as mobilization of intracellular Ca2+ at 3 uM after 20 mins by oregon green 488 BAPTA-1/AM dye-based fluorescence assay relative to control. It counts as functional, cell-based.
Test [10] can be described thus: Effect on Ca2+ mobilization in GPR17 deficient human 1321N1 cells at 3 uM after 20 mins by oregon green 488 BAPTA-1/AM dye-based fluorescence assay. It is filed as functional.
The target in test [11] is T1, Uracil nucleotide/cysteinyl leukotriene receptor. Briefly: Agonist activity at recombinant human GPR17 short isoform transfected in human 1321N1 cells assessed as mobilization of intracellular Ca2+ at 3 uM after 20 mins by oregon green 488 BAPTA-1/AM dye-based fluorescence assay relative to control. It counts as functional, cell-based.
Test [12] is described as follows: Effect on Ca2+ mobilization in GPR17 deficient human 1321N1 cells at 1 uM after 20 mins by oregon green 488 BAPTA-1/AM dye-based fluorescence assay. It counts as functional.
Test [13] concerns the target T1, Uracil nucleotide/cysteinyl leukotriene receptor. As to the kind of experiment: Agonist activity at recombinant human GPR17 short isoform transfected in human 1321N1 cells assessed as mobilization of intracellular Ca2+ after 20 mins by oregon green 488 BAPTA-1/AM dye-based fluorescence assay. It is filed as functional, cell-based.
Test [14] has as its system CHO-K1. As to the kind of experiment: Effect on Ca2+ mobilization in GPR17 deficient CHOK1 cells at 1 uM after 20 mins by oregon green 488 BAPTA-1/AM dye-based fluorescence assay. It is filed as functional, Cricetulus griseus.
The target of test [15] is T1, Uracil nucleotide/cysteinyl leukotriene receptor. As to the kind of experiment: Agonist activity at recombinant human GPR17 short isoform transfected in CHO cells assessed as inhibition of forskolin-stimulated intracellular cAMP accumulation after 30 mins by FRET assay. It is filed as functional, cell-based. (In general: Cyclic AMP is a second messenger, typically raised through Gs and lowered through Gi signalling.)

The next test relates to CHO. Briefly: Inhibition of forskolin-stimulated intracellular cAMP accumulation in CHO cells after 30 mins by FRET assay. As to conditions: Cricetulus griseus. It is filed as functional, cell-based.
Test [16] addresses T1, Uracil nucleotide/cysteinyl leukotriene receptor. Briefly: Antagonist activity at recombinant human GPR17 short isoform transfected in CHO cells assessed as inhibition of RA-II-150-mediated intracellular Ca2+ mobilization preincubated for 5 to 30 mins followed by RA-II-150 addition measured after 20 mins by oregon green 488 BAPTA-1/AM dye-based fluorescence assay. It counts as functional, cell-based.

Test [17] relates to CHO-K1. As to the kind of experiment: Effect on Ca2+ mobilization in GPR17 deficient CHOK1 cells at 0.1 uM after 20 mins by oregon green 488 BAPTA-1/AM dye-based fluorescence assay. It is filed as functional, Cricetulus griseus.
Test [18] is described as follows: Effect on Ca2+ mobilization in GPR17 deficient human 1321N1 cells at 0.1 uM after 20 mins by oregon green 488 BAPTA-1/AM dye-based fluorescence assay. It counts as functional.

In the case of `O=C(O)CCc1c(C(=O)O)[nH]c2cc(Br)cc(Br)c12`, the Activity in test [1] was determined as 0%; in [2], 106%; with CHO-K1 [3] it was 0%; in test [4] it was 89%.

Take `O=C(O)CCc1c(C(=O)O)[nH]c2cc(Cl)ccc12`: the Activity came to 4% in [1], 94% in test [5], 84% in [6] and 1% with CHO-K1 [3].

`O=C(O)CCc1c(C(=O)O)[nH]c2cc(-c3ccccc3)ccc12`: in test [7], the concentration giving a half-maximal response (EC50) – broadly, the midpoint of the concentration-response curve – is 0.724 µM.

As to `O=C(O)CCc1c(C(=O)O)[nH]c2cc(I)ccc12`, the concentration for a half-maximal effect (EC50) in test [7] is 0.708 µM.

With `O=C(O)CCc1c(C(=O)O)[nH]c2cc(F)cc(F)c12`, the Activity was found to be 1% in the test with CHO-K1 [8], 97% in test [9], 2% in [10] and 77% in test [11].

Consider `O=C(O)CCc1c(C(=O)O)n(CCC(=O)O)c2cc(Cl)cc(Cl)c12`, for which the Activity was 85% in test [5], 80% in test [6], 1% in test [12] and 1% in the test with CHO-K1 [14]. The concentration for a half-maximal effect (EC50) in [13] was 5.25 µM; in test [7], 0.186 µM.

In the case of `NCC(=O)CCC(=O)O`, the inhibition entry (in test [15]; in the test on CHO) was “Active” each time.

`O=C(O)CCc1c(C(=O)O)[nH]c2cc(Br)ccc12`: the concentration giving a half-maximal response (EC50) in [7] is 3.16 µM.

Take `O=C(Nc1cccc2c(=O)cc(-c3nnn[nH]3)oc12)c1ccc(OCCCCc2ccccc2)cc1`: in test [16], the inhibition result is “Dose-dependent effect”.

In the case of `O=C(O)CCc1c(C(=O)O)[nH]c2cc(-c3ccccc3)cc(-c3ccccc3)c12`, the EC50 in test [7] was 3.02 µM.

As to `O=C(O)CCc1c(C(=O)O)[nH]c2cc(I)cc(I)c12`, in test [7], the 50% effective concentration (EC50) is 4.79 µM.

For `O=C(O)CCc1c(C(=O)O)[nH]c2cc(Cl)cc(Cl)c12`, the figures for the Activity (in the test on CHO-K1 [17]; in test [18]; in test [4]) were 0%, 0% and 100%, respectively.

In the case of `Cc1cc(C)c2c(CCC(=O)O)c(C(=O)O)[nH]c2c1`, the Activity was determined as 68% in test [5], 76% in [6], 1% in [12] and 1% in the test on CHO-K1 [14].

Source of the values: ChEMBL document CHEMBL3879883, “GPR 17 agonists and screening assay” (2013).
